In patent publication US11572590B2, “Methods for evaluating tumor cell spheroids using 3D microfluidic cell culture device” (Dana-Farber Cancer Institute, Inc., priority 2017, dated 2023):
Read-outs that look alike come from different tables or passages of the source.

Key:
Test in all cases: SelectScreen Kinase Profiling, single point inhibition and IC50 for off-target kinases
Type in all cases: biochemical
[1] = target: off-target kinases (Homo sapiens, UniProt O60674, V617F); settings: JAK2 JH1 JH2 V617F, ATP Km app, ZLYTE
off-target kinases (Homo sapiens, UniProt O60674, V617F), sequence (O60674 whole entry V617F): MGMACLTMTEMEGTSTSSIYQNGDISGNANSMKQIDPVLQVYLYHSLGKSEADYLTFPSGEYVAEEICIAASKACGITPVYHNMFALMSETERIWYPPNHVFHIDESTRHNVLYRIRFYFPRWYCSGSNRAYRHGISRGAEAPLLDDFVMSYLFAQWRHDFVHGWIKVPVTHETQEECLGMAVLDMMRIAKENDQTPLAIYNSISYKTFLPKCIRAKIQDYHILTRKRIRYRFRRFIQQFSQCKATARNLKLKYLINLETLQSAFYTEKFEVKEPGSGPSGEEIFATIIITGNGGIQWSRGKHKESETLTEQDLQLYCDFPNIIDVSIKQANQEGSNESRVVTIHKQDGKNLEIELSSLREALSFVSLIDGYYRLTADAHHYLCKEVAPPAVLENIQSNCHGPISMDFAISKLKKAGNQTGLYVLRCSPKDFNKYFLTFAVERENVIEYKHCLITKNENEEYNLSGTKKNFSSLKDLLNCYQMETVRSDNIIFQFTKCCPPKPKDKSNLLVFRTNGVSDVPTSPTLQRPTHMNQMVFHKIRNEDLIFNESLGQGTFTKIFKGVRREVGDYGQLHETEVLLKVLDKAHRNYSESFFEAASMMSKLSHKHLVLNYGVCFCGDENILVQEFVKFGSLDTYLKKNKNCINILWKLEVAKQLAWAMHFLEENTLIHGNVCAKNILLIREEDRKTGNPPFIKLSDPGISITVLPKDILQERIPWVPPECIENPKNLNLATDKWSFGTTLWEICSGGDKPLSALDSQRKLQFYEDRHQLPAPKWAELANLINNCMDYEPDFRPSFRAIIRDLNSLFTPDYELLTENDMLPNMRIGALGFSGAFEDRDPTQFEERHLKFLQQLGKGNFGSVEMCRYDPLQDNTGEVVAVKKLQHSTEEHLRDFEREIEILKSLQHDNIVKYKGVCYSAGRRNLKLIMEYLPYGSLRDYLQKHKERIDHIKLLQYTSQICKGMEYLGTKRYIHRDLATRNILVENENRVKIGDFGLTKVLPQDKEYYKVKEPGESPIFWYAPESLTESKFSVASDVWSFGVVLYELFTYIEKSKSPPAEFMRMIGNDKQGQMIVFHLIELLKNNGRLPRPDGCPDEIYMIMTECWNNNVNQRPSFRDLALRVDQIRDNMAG

[2] = target: off-target kinases (Homo sapiens, UniProt P00519, E255K); settings: ABL1 E255K, ATP Km app, ZLYTE
off-target kinases (Homo sapiens, UniProt P00519, E255K), sequence (P00519 whole entry E255K): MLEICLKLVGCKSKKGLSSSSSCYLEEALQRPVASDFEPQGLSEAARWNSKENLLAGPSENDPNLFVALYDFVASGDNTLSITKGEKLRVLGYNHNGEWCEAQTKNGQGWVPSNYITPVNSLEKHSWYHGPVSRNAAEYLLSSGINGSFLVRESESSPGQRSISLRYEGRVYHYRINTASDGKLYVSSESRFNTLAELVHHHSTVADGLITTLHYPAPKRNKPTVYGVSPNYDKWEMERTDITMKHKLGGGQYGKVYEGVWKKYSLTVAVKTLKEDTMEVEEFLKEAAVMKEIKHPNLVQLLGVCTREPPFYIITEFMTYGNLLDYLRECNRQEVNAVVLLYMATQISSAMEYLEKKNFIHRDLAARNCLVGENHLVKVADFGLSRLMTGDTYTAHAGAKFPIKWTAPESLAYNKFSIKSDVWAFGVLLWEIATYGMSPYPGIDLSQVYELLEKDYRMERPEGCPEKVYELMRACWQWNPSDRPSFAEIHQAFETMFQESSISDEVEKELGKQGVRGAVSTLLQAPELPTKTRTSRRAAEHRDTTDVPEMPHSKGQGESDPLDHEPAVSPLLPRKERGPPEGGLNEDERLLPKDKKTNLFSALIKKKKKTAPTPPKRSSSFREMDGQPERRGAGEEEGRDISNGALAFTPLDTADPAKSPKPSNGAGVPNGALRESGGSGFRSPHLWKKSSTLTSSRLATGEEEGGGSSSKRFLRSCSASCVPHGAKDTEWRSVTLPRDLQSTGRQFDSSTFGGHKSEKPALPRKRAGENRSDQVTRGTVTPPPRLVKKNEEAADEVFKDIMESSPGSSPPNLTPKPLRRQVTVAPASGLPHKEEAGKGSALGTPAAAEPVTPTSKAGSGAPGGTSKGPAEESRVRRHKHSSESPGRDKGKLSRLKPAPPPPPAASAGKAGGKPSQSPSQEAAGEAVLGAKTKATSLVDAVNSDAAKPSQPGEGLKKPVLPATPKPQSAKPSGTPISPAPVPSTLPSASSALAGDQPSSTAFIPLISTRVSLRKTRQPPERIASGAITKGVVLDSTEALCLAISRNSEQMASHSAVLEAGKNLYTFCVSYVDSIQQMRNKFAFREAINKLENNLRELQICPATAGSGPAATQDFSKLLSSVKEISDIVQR

[3] = target: off-target kinases (Homo sapiens, UniProt P16234); settings: PDGFRA (PDGFR alpha), ATP Km app, ZLYTE
off-target kinases (Homo sapiens, UniProt P16234), sequence (P16234 24-1089): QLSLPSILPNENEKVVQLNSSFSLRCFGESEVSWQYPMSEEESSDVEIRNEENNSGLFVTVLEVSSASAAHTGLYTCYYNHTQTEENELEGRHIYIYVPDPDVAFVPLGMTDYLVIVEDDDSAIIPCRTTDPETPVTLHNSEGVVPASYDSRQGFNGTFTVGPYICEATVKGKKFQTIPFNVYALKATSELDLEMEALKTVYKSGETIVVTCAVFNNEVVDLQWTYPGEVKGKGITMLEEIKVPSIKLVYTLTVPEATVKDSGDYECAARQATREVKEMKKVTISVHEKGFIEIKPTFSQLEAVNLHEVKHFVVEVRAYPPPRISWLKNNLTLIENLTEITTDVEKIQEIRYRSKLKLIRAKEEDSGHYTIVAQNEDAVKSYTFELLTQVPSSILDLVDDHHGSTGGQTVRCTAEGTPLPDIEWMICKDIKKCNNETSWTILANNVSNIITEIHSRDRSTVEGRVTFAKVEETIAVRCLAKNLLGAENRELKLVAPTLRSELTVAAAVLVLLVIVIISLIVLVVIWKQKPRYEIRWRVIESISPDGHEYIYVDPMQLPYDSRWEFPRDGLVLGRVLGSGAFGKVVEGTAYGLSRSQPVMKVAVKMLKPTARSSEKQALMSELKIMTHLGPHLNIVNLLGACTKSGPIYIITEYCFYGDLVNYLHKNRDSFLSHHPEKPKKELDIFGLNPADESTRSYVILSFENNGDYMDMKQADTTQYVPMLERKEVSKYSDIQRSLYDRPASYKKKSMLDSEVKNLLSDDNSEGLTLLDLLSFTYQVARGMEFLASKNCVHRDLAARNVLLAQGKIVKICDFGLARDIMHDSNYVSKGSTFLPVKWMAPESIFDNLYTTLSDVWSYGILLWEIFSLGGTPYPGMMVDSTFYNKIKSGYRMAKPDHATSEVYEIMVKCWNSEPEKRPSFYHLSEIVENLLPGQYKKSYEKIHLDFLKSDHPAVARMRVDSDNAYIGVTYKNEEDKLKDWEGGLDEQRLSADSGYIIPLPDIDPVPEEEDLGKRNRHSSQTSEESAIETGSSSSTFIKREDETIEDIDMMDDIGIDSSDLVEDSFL

[4] = target: off-target kinases (Homo sapiens, UniProt P24941)
[5] = target: off-target kinases (Homo sapiens, UniProt Q05655); settings: PRKCD (PKC delta), ZLYTE, ATP Km app
off-target kinases (Homo sapiens, UniProt Q05655), sequence (Q05655 whole entry): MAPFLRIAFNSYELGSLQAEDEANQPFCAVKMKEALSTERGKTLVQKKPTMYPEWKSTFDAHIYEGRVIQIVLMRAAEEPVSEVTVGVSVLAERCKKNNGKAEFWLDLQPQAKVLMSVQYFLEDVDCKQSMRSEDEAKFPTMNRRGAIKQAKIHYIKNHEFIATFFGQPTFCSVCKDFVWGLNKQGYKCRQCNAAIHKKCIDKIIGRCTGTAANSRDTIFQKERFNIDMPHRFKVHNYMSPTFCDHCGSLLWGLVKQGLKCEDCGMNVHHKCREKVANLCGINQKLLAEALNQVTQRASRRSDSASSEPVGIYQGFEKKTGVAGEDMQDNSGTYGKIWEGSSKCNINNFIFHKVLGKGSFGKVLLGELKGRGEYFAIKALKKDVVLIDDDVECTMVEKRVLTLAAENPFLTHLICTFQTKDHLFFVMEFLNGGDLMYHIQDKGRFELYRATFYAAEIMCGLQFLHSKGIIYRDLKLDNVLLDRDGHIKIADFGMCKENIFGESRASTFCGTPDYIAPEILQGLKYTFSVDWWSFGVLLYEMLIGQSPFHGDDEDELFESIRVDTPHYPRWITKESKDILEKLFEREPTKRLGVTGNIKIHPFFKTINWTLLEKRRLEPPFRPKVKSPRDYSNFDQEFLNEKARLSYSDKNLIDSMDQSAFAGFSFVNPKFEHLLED

[6] = target: T1, off-target kinases (Homo sapiens, UniProt Q12851); settings: MAP4K2 (GCK), ZLYTE, ATP Km app
T1 sequence (Q12851 1-820): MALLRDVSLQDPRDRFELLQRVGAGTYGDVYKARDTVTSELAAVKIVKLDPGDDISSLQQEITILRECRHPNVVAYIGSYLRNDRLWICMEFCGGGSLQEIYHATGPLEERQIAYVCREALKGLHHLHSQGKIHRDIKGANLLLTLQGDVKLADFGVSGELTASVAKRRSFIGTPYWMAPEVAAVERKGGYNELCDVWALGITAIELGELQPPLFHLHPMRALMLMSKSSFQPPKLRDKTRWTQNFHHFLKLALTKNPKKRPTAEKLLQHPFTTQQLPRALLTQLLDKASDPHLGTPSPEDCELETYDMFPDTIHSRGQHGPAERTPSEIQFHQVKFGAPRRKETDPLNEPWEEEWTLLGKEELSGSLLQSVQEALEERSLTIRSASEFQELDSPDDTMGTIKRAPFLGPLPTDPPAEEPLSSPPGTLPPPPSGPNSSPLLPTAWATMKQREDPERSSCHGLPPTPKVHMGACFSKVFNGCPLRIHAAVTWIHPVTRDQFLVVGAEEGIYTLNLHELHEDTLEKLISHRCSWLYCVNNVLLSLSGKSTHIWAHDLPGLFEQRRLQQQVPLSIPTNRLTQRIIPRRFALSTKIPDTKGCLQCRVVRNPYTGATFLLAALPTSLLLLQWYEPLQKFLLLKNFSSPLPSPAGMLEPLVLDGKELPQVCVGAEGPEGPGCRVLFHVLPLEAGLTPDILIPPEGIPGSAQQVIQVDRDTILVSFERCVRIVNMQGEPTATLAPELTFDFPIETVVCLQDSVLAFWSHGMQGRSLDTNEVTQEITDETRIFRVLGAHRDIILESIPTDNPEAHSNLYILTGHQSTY

[7] = target: off-target kinases (Homo sapiens, UniProt Q13131)
off-target kinases (Homo sapiens, UniProt Q13131), sequence (Q13131 whole entry): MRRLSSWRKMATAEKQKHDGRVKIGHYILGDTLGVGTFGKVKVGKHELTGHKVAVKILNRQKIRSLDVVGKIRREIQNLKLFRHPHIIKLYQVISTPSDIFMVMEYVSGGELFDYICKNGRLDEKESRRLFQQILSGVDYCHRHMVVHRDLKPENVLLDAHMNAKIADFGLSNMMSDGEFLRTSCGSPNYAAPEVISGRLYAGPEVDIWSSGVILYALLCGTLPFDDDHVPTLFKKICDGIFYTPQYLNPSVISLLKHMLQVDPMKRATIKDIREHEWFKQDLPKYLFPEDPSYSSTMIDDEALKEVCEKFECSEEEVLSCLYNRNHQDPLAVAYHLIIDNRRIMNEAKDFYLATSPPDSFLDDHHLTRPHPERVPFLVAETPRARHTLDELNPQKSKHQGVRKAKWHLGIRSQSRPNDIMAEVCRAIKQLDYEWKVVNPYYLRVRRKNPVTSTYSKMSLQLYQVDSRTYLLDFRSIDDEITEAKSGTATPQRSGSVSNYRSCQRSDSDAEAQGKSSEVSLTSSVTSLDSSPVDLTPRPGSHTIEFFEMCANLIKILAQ

`N#Cc1cc(-c2ncnc(Nc3ccc(N4CCN(C5COC5)CC4)cc3)n2)ccc1OC1CCOCC1` [Compound 1, 5-(4-((4-(4-(oxetan-3-yl)piperazin-1-yl)phenyl)amino)-1,3,5-triazin-2-yl)-2-((tetrahydro-2H-pyran-4-yl)oxy)benzonitrile] showed an inhibition ([1]; read-out: % Inhibition 1) of 54%, an inhibition ([1]; read-out: % Inhibition 2) of 50% and an inhibition ([1]; read-out: % Inhibition Avg) of 52%. The inhibition ([2]; read-out: % Inhibition 1) was 53%, the inhibition ([2]; read-out: % Inhibition 2) was 50% and the inhibition ([2]; read-out: % Inhibition Avg) was 51%. For the same compound, the inhibition ([3]; read-out: % Inhibition 1) was 43%, the inhibition ([3]; read-out: % Inhibition 2) was 43% and the inhibition ([3]; read-out: % Inhibition Avg) was 43%. For the same compound, the inhibition ([4]; CDK2/cyclin A1, LanthaScreen Binding, read-out: % Inhibition 1) was 33%, the inhibition ([4]; CDK2/cyclin A1, LanthaScreen Binding, read-out: % Inhibition 2) was 39% and the inhibition ([4]; CDK2/cyclin A1, LanthaScreen Binding, read-out: % Inhibition Avg) was 36%. It also gave an inhibition ([4]; CDK2/cyclin A2, LanthaScreen Binding, read-out: % Inhibition 1) of 24%, an inhibition ([4]; CDK2/cyclin A2, LanthaScreen Binding, read-out: % Inhibition 2) of 29% and an inhibition ([4]; CDK2/cyclin A2, LanthaScreen Binding, read-out: % Inhibition Avg) of 26%. For the same compound, the inhibition ([4]; CDK2/cyclin A, ZLYTE, ATP Km app, read-out: % Inhibition 1) was 38%, the inhibition ([4]; CDK2/cyclin A, ZLYTE, ATP Km app, read-out: % Inhibition 2) was 36% and the inhibition ([4]; CDK2/cyclin A, ZLYTE, ATP Km app, read-out: % Inhibition Avg) was 37%. For the same compound, the inhibition ([4]; CDK2/cyclin E1, LanthaScreen Binding, read-out: % Inhibition 1) was 15%, the inhibition ([4]; CDK2/cyclin E1, LanthaScreen Binding, read-out: % Inhibition 2) was 17% and the inhibition ([4]; CDK2/cyclin E1, LanthaScreen Binding, read-out: % Inhibition Avg) was 16%. It also gave an inhibition ([4]; CDK2/cyclin O, LanthaScreen, read-out: % Inhibition 1) of 39%, an inhibition ([4]; CDK2/cyclin O, LanthaScreen, read-out: % Inhibition 2) of 42% and an inhibition ([4]; CDK2/cyclin O, LanthaScreen, read-out: % Inhibition Avg) of 41%. The inhibition ([5]; read-out: % Inhibition 1) was 4%, the inhibition ([5]; read-out: % Inhibition 2) was -4% and the inhibition ([5]; read-out: % Inhibition Avg) was 0%. The inhibition ([6]; read-out: % Inhibition 1) was 6%, the inhibition ([6]; read-out: % Inhibition 2) was -2% and the inhibition ([6]; read-out: % Inhibition Avg) was 2%. The inhibition ([7]; AMPK (A1/B1/G2), LanthaScreen Binding, read-out: % Inhibition 1) was 40%, the inhibition ([7]; AMPK (A1/B1/G2), LanthaScreen Binding, read-out: % Inhibition 2) was 40% and the inhibition ([7]; AMPK (A1/B1/G2), LanthaScreen Binding, read-out: % Inhibition Avg) was 40%. It also gave an inhibition ([7]; AMPK (A1/B1/G3), LanthaScreen Binding, read-out: % Inhibition 1) of 37%, an inhibition ([7]; AMPK (A1/B1/G3), LanthaScreen Binding, read-out: % Inhibition 2) of 42% and an inhibition ([7]; AMPK (A1/B1/G3), LanthaScreen Binding, read-out: % Inhibition Avg) of 39%. For the same compound, the inhibition ([7]; AMPK (A1/B2/G1), LanthaScreen Binding, read-out: % Inhibition 1) was 49%, the inhibition ([7]; AMPK (A1/B2/G1), LanthaScreen Binding, read-out: % Inhibition 2) was 43% and the inhibition ([7]; AMPK (A1/B2/G1), LanthaScreen Binding, read-out: % Inhibition Avg) was 46%. It also gave an inhibition ([7]; AMPK A1/B1/G1, ATP Km app, ZLYTE, read-out: % Inhibition 1) of 58%, an inhibition ([7]; AMPK A1/B1/G1, ATP Km app, ZLYTE, read-out: % Inhibition 2) of 53% and an inhibition ([7]; AMPK A1/B1/G1, ATP Km app, ZLYTE, read-out: % Inhibition Avg) of 55%.
